Experimental data taken from PubChem BioAssay AID256 (DTP/NCI, 2004).
Values joined by “and” are separate entries in the source; they are usually repeats but may differ in a detail not shown here. Equal entries are not always repeated. Toxic doses and inconclusive results are not listed.

Tested on: CD2F1 mice, L1210 leukemia ip, survival T/C
Assay: NCI In Vivo Anticancer Drug Screen. Data for tumor model L1210 Leukemia (intraperitoneal) in CD2F1 (CDF1) mice
Settings: higher = longer survival
In short: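 Each value reflects a quotient of treated over vehicle control outcomes in mice with a transplanted tumor.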

[1] = endpoint: mean survival time, dose: 100.0 mg/kg/injection, schedule: Q01DX009 (ip), vehicle: saline with Tween-80
[2] = endpoint: mean survival time, dose: 100.0 mg/kg/injection, schedule: Q04DX003 (ip), vehicle: saline with Tween-80
[3] = endpoint: mean survival time, dose: 200.0 mg/kg/injection, schedule: Q01DX009 (ip), vehicle: saline with Tween-80
[4] = endpoint: mean survival time, dose: 200.0 mg/kg/injection, schedule: Q04DX003 (ip), vehicle: saline with Tween-80
[5] = endpoint: mean survival time, dose: 400.0 mg/kg/injection, schedule: Q01DX009 (ip), vehicle: saline with Tween-80
[6] = endpoint: mean survival time, dose: 400.0 mg/kg/injection, schedule: Q04DX003 (ip), vehicle: saline with Tween-80
[7] = endpoint: mean survival time, dose: 100.0 mg/kg/injection, schedule: Q04DX002 (ip), vehicle: saline with Tween-80
[8] = endpoint: mean survival time, dose: 200.0 mg/kg/injection, schedule: Q04DX002 (ip), vehicle: saline with Tween-80
[9] = endpoint: mean survival time, dose: 400.0 mg/kg/injection, schedule: Q04DX002 (ip), vehicle: saline with Tween-80
[10] = endpoint: mean survival time, dose: 200.0 mg/kg/injection, schedule: Q01DX001 (ip), vehicle: saline with Tween-80
[11] = endpoint: mean survival time, dose: 400.0 mg/kg/injection, schedule: Q01DX001 (ip), vehicle: saline with Tween-80
[12] = endpoint: mean survival time, dose: 6.25 mg/kg/injection, schedule: Q01DX009 (ip), vehicle: saline with Tween-80
[13] = endpoint: mean survival time, dose: 12.5 mg/kg/injection, schedule: Q01DX009 (ip), vehicle: saline with Tween-80
[14] = endpoint: mean survival time, dose: 25.0 mg/kg/injection, schedule: Q01DX009 (ip), vehicle: saline with Tween-80
[15] = endpoint: mean survival time, dose: 50.0 mg/kg/injection, schedule: Q01DX009 (ip), vehicle: saline with Tween-80
[16] = endpoint: mean survival time, dose: 100.0 mg/kg/injection, schedule: Q01DX001 (ip), vehicle: saline with Tween-80
[17] = endpoint: mean survival time, dose: 75.0 mg/kg/injection, schedule: Q01DX001 (ip), vehicle: saline

## C=C(C)C1Cc2c(ccc3c2OC2COc4cc(OC)c(OC)cc4C2C3=O)O1 (centres undefined)
[1]
  T/C: 92 % of control
[2]
  T/C: 103 % of control
[3]
  T/C: 93 % of control
[4]
  T/C: 101 % of control
[5]
  T/C: 94 % of control
[6]
  T/C: 97 % of control

## CCOc1ccccc1/C=C1\N=C(c2cc(OC)c(OC)c(OC)c2)OC1=O
[7]
  T/C: 106 % of control
[8]
  T/C: 100 % of control
[9]
  T/C: 95 % of control

## Nc1nc2c(ncn2-c2ccc(OCCCc3ccccc3)cc2)c(=O)[nH]1
[10]
  T/C: 88 % of control
[11]
  T/C: 89 % of control

## CCCCCC(C)C(C)=O (centres undefined)
[1]
  T/C: 101 % of control
[3]
  T/C: 106 % of control
[5]
  T/C: 92 % of control

## NC(CS)=NCc1ccccc1
endpoint: mean survival time, dose: 6.25 mg/kg/injection, schedule: Q04DX002 (ip), vehicle: saline
  T/C: 108 % of control
endpoint: mean survival time, dose: 12.5 mg/kg/injection, schedule: Q04DX002 (ip), vehicle: saline
  T/C: 115 % of control
endpoint: mean survival time, dose: 25.0 mg/kg/injection, schedule: Q04DX002 (ip), vehicle: saline
  T/C: 101 % of control

## Cc1c(Cl)cccc1NS(=O)(=O)c1cccc([N+](=O)[O-])c1
[2]
  T/C: 88 % of control
[4]
  T/C: 92 % of control
[6]
  T/C: 86 % of control

## C/C(=N\Nc1ccccc1)C1=C(O)C(Cc2ccccc2)NC1=O (centres undefined)
[7]
  T/C: 100 % of control
[8]
  T/C: 100 % of control
[9]
  T/C: 103 % of control

## CSc1ccc2c(c1)C(N1CCN(C)CC1)Cc1ccccc1S2 (centres undefined)
endpoint: mean survival time, dose: 1.56 mg/kg/injection, schedule: Q01DX009 (ip), vehicle: saline with Tween-80
  T/C: 112 % of control
endpoint: mean survival time, dose: 3.12 mg/kg/injection, schedule: Q01DX009 (ip), vehicle: saline with Tween-80
  T/C: 118 % of control and 121 % of control
[12]
  T/C: 116 % of control and 122 % of control
[13]
  T/C: 115 % of control and 120 % of control
[14]
  T/C: 122 % of control and 108 % of control
[15]
  T/C: 114 % of control

## O=C1OC(c2c[nH]c3ccccc23)c2ccccc21 (centres undefined)
[16]
  T/C: 94 % of control
[10]
  T/C: 94 % of control
[11]
  T/C: 87 % of control

## O=C(O)CCCCc1ccc([N+](=O)[O-])cc1
endpoint: mean survival time, dose: 100.0 mg/kg/injection, schedule: Q04DX002 (ip), vehicle: other
  T/C: 105 % of control
endpoint: mean survival time, dose: 200.0 mg/kg/injection, schedule: Q04DX002 (ip), vehicle: other
  T/C: 102 % of control
endpoint: mean survival time, dose: 400.0 mg/kg/injection, schedule: Q04DX002 (ip), vehicle: other
  T/C: 97 % of control

## Cc1ccccc1NC(=O)Oc1ccc(-c2ccccc2)cc1Cl
[7]
  T/C: 86 % of control
[8]
  T/C: 89 % of control
[9]
  T/C: 93 % of control

## C1CC[N-]CC1.CC(=N\O)/C(C)=N/O.CC(=N\O)/C(C)=N/O.C[CH-]C(C)O.[Co+2]
endpoint: mean survival time, dose: 6.25 mg/kg/injection, schedule: Q04DX003 (ip), vehicle: saline
  T/C: 97 % of control

## S=C1SCCN1c1ccccc1
[1]
  T/C: 96 % of control
[2]
  T/C: 103 % of control
[3]
  T/C: 96 % of control
[4]
  T/C: 101 % of control
[5]
  T/C: 95 % of control
[6]
  T/C: 100 % of control

## c1ccc(C2Cc3ccccc3C2=NC2CCCCC2)cc1 (centres undefined)
[16]
  T/C: 97 % of control
[10]
  T/C: 93 % of control
[11]
  T/C: 90 % of control

## CCOC(=O)Nc1cc(NC(c2ccccc2)c2ccccc2)c([N+](=O)[O-])c(Cl)n1
endpoint: mean survival time, dose: 100.0 mg/kg/injection, schedule: Q01DX001 (ip), vehicle: carboxymethylcellulose (CMC)
  T/C: 95 % of control
endpoint: mean survival time, dose: 200.0 mg/kg/injection, schedule: Q01DX001 (ip), vehicle: carboxymethylcellulose (CMC)
  T/C: 93 % of control
endpoint: mean survival time, dose: 400.0 mg/kg/injection, schedule: Q01DX001 (ip), vehicle: carboxymethylcellulose (CMC)
  T/C: 91 % of control

## O=C(Nc1cc(S(=O)(=O)O)ccc1Oc1ccccc1Cl)Nc1cc(S(=O)(=O)O)ccc1Oc1ccccc1Cl
endpoint: mean survival time, dose: 100.0 mg/kg/injection, schedule: Q01DX009 (ip), vehicle: Klucel (hydroxypropylcellulose) (HPC)
  T/C: 101 % of control
[2]
  T/C: 95 % of control
endpoint: mean survival time, dose: 200.0 mg/kg/injection, schedule: Q01DX009 (ip), vehicle: Klucel (hydroxypropylcellulose) (HPC)
  T/C: 98 % of control
[4]
  T/C: 95 % of control
endpoint: mean survival time, dose: 400.0 mg/kg/injection, schedule: Q01DX009 (ip), vehicle: Klucel (hydroxypropylcellulose) (HPC)
  T/C: 97 % of control
[6]
  T/C: 98 % of control

## O=C(Nc1cccc(Cl)c1)c1ccccc1
[1]
  T/C: 103 % of control
[2]
  T/C: 91 % of control
[3]
  T/C: 89 % of control
[4]
  T/C: 110 % of control
[5]
  T/C: 98 % of control
[6]
  T/C: 94 % of control

## O=[N+]([O-])c1ccccc1-c1cc(-c2ccccc2)nn1-c1ccccc1
[1]
  T/C: 102 % of control
[2]
  T/C: 98 % of control
[3]
  T/C: 103 % of control
[4]
  T/C: 98 % of control
[5]
  T/C: 97 % of control
[6]
  T/C: 95 % of control

## CC(O)C(=O)NN (centres undefined)
[1]
  T/C: 112 % of control
[3]
  T/C: 116 % of control
[5]
  T/C: 93 % of control

## Nc1nc(Br)nc2c1ncn2C1CC(O)C(CO)O1 (centres undefined)
endpoint: median survival time, dose: 3.8 mg/kg/injection, schedule: Q03HX009 (ip), vehicle: saline
  T/C: 120 % of control
endpoint: median survival time, dose: 10.0 mg/kg/injection, schedule: Q03HX024 (ip), vehicle: saline
  T/C: 152 % of control
endpoint: median survival time, dose: 15.0 mg/kg/injection, schedule: Q03HX009 (ip), vehicle: water
  T/C: 163 % of control
endpoint: median survival time, dose: 20.0 mg/kg/injection, schedule: Q03HX024 (ip), vehicle: saline
  T/C: 164 % of control and 174 % of control
endpoint: median survival time, dose: 30.0 mg/kg/injection, schedule: Q03HX009 (ip), vehicle: suspension in saline
  T/C: 195 % of control
endpoint: median survival time, dose: 30.0 mg/kg/injection, schedule: Q03HX009 (ip), vehicle: water
  T/C: 237 % of control
endpoint: median survival time, dose: 30.0 mg/kg/injection, schedule: Q03HX024 (ip), vehicle: saline
  T/C: 329 % of control
endpoint: median survival time, dose: 40.0 mg/kg/injection, schedule: Q03HX024 (ip), vehicle: saline
  T/C: 728 % of control
endpoint: median survival time, dose: 53.0 mg/kg/injection, schedule: Q03DX003 (ip), vehicle: saline
  T/C: 121 % of control
endpoint: median survival time, dose: 60.0 mg/kg/injection, schedule: Q03HX009 (ip), vehicle: suspension in saline
  T/C: 243 % of control
endpoint: median survival time, dose: 60.0 mg/kg/injection, schedule: Q03HX009 (ip), vehicle: water
  T/C: 221 % of control
endpoint: median survival time, dose: 80.0 mg/kg/injection, schedule: Q03DX003 (ip), vehicle: saline
  T/C: 118 % of control
endpoint: median survival time, dose: 120.0 mg/kg/injection, schedule: Q03DX003 (ip), vehicle: saline
  T/C: 122 % of control
endpoint: median survival time, dose: 120.0 mg/kg/injection, schedule: Q03HX009 (ip), vehicle: suspension in saline
  T/C: 193 % of control

## CC(C)(O)C#Cc1ccccc1
[1]
  T/C: 98 % of control
[3]
  T/C: 98 % of control
[5]
  T/C: 96 % of control

## CCOC(=O)C(N)Cc1ccc(O)cc1 (centres undefined)
endpoint: mean survival time, dose: 100.0 mg/kg/injection, schedule: Q04DX003 (ip), vehicle: other
  T/C: 102 % of control
endpoint: mean survival time, dose: 200.0 mg/kg/injection, schedule: Q04DX003 (ip), vehicle: other
  T/C: 100 % of control
endpoint: mean survival time, dose: 400.0 mg/kg/injection, schedule: Q04DX003 (ip), vehicle: other
  T/C: 97 % of control

## CCc1c(Br)c(CC)c(CC)c(Br)c1CC
[16]
  T/C: 105 % of control
[1]
  T/C: 104 % of control
[10]
  T/C: 95 % of control
[3]
  T/C: 101 % of control
[11]
  T/C: 103 % of control
[5]
  T/C: 96 % of control

## COc1cc(Cl)ccc1NC(=O)Oc1ccc(C)cc1[N+](=O)[O-]
endpoint: mean survival time, dose: 5.0 mg/kg/injection, schedule: Q01DX009 (ip), vehicle: saline with Tween-80
  T/C: 93 % of control
[1]
  T/C: 96 % of control
[3]
  T/C: 96 % of control

## Nc1nnn(CCO)n1
[1]
  T/C: 100 % of control
[3]
  T/C: 97 % of control
[5]
  T/C: 96 % of control

## S=c1n(Cc2ccccc2)cnc2ncnn12
endpoint: mean survival time, dose: 100.0 mg/kg/injection, schedule: Q04DX003 (ip), vehicle: Klucel (hydroxypropylcellulose) (HPC)
  T/C: 98 % of control
endpoint: mean survival time, dose: 200.0 mg/kg/injection, schedule: Q04DX003 (ip), vehicle: Klucel (hydroxypropylcellulose) (HPC)
  T/C: 111 % of control

## O=C(Nc1ccc(C2=NCCCN2)cc1)c1ccc(NC(=O)c2ccc(C3=NCCCN3)cc2)cc1
endpoint: mean survival time, dose: 1.0 mg/kg/injection, schedule: Q01DX008 (iv), vehicle: other
  T/C: 95 % of control
endpoint: mean survival time, dose: 2.0 mg/kg/injection, schedule: Q01DX008 (iv), vehicle: other
  T/C: 107 % of control
endpoint: mean survival time, dose: 4.0 mg/kg/injection, schedule: Q01DX008 (iv), vehicle: other
  T/C: 189 % of control

## c1ccc2c(c1)nnn1c3ncccc3nc21
[17]
  T/C: 98 % of control
endpoint: mean survival time, dose: 150.0 mg/kg/injection, schedule: Q01DX001 (ip), vehicle: saline
  T/C: 92 % of control
endpoint: mean survival time, dose: 300.0 mg/kg/injection, schedule: Q01DX001 (ip), vehicle: saline
  T/C: 93 % of control

## C[Si](C)(C)O/C=C1\CCCCC1=O
[12]
  T/C: 98 % of control and 100 % of control
[13]
  T/C: 96 % of control and 98 % of control
[14]
  T/C: 91 % of control and 100 % of control
[15]
  T/C: 93 % of control and 100 % of control
[1]
  T/C: 93 % of control and 102 % of control
[3]
  T/C: 105 % of control

## O=P(O)(c1ccccc1CBr)c1ccccc1CBr
[17]
  T/C: 90 % of control
